Source: publication PMC6211276, “Computer-aided molecular design of pyrazolotriazines targeting glycogen synthase kinase 3” (Journal of Enzyme Inhibition and Medicinal Chemistry, 2018)

Tests used:
GSK-3β [1] = target: T1, GSK-3β (Homo sapiens, UniProt P49841); assay: Inhibition of GSK-3β (Kinase-Glo luminescent assay); assay type: biochemical; design: purchased Millipore (Millipore Ibérica SAU); conditions: for GSK-3 inhibition at a fixed compound concentration: fixed compound concentration of 10 μM; for IC50: mean of three independent determinations, 1 μM ATP
T1 sequence (P49841 whole entry): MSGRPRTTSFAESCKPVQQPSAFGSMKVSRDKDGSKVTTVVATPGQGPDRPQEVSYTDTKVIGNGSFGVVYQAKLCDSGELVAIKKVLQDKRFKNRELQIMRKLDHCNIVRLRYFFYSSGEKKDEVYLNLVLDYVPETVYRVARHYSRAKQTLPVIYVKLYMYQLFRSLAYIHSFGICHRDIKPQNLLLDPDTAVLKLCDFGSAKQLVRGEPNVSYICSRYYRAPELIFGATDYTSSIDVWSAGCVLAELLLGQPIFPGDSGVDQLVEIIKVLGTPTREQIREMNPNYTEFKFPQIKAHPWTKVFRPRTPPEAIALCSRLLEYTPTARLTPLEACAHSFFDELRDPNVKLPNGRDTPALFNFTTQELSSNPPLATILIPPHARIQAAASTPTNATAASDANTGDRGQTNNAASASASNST
Procedure: Human recombinant GSK-3β and the pre-phosphorylated polypeptide substrate were purchased from Millipore (Millipore Ibérica SAU). Kinase-Glo Luminescent Kinase Assay was obtained from Promega (Promega Biotech Ibérica, SL)[29]. ATP and all other reagents were from Sigma Aldrich (St. Louis, MO). Assay buffer contained 50 mM HEPES (pH 7.5), 1 mM EDTA, 1 mM EGTA, and 15 mM magnesium acetate.
The method of Baki et al. was followed to analyse the inhibition of GSK-3β[30]. Kinase-Glo assays were performed in assay buffer using black 96-well plates. In a typical assay, 10 μL (10 μM) of test compound (dissolved in dimethyl sulfoxide [DMSO] at 1 mM concentration and diluted in advance in assay buffer to the desired concentration) and 10 μL (20 ng) of enzyme were added to each well followed by 20 μL of assay buffer containing 25 μM substrate and 1 μM ATP. […] After 30 min incubation at 30 °C, the enzymatic reaction was stopped with 40 μL of Kinase-Glo reagent. Glow-type luminescence was recorded after 10 min using a FLUOstar Optima (BMG Labtechnologies GmbH, Offenburg, Germany) multimode reader. The activity is proportional to the difference of the total and consumed ATP. The inhibitory activities were calculated based on maximal activities measured in the absence of inhibitor.

[2] = In vitro parallel artificial membrane permeability assay (PAMPA-BBB); conditions: for Papp at 4 h: pig, PAMPA, pH 7.4; for BBB prediction: predictive penetration in the CNS from PAMPA-BBB Pe; for ability to cross the BBB by passive permeation: prediction from PAMPA-BBB Pe
Procedure: Prediction of the brain penetration was evaluated using a parallel artificial membrane permeability assay (PAMPA). Ten commercial drugs, phosphate buffer saline solution at pH 7.4 (PBS), ethanol, and dodecane were purchased from Sigma Aldrich, Across organics and Fluka. […] Filter PDVF membrane units (diameter 30 mm, pore size 0.45 μm) from Symta were used to filter the samples. A 96-well plate UV, (Thermoscientific, Varioskan Lux multimode microplate reader) was used for the UV measurements. […] Then 100 μL of this compound stock solution was taken, and 1400 μL of ethanol and 3500 μL of PBS pH 7.4 buffer were added to reach 30% of ethanol concentration in the experiment. These solutions were filtered. The acceptor 96-well microplate was filled with 180 μL of PBS:ethanol (70:30). The donor 96-well plate was coated with 4 μL of porcine brain lipid in dodecane (20 mg mL^−1), and after 5 min, 180 μL of each compound solution was added. Then 1−2 mg of every compound to be determined for their ability to pass the brain barrier were dissolved in 1500 μL of ethanol and 3500 μL of PBS pH 7.4 buffer, filtered, and then added to the donor 96-well plate. […] During this time, the compounds diffused from the donor plate through the brain lipid membrane into the acceptor plate. After incubation, the donor plate was removed. The concentration of compounds and commercial drugs in the acceptor and the donor wells was determined by UV plate reader. Every sample was analysed at three to five wavelengths, in three wells and in three independent runs. […] Ten quality control compounds (previously mentioned) of known BBB permeability were included in each experiment to validate the analysis set.

SH-SY5Y cells = assay: Okadaic acid-induced tau hyperphosphorylation cell model (MTT cell viability); assay type: cell-based, human; conditions: for cell viability (MTT test) in OA-induced neurodegeneration cell model: compound 10 µM for 1 h, then OA 30 nM for 24 h
Procedure: Human SH-SY5Y cells were grown in DMEM supplemented with 10% FBS and 1% penicillin/streptomycin at 37 °C and 5% CO2 in an incubator. SH-SY5Y cells were seeded onto 96-well plate at 60.000 cells per well. 48 h later, cells were pre-incubated with the compounds at the desired concentration for 1 h and after that time okadaic acid (OA) (Sigma Aldrich, catalogue no: 09381) was added at a concentration of 30 nM and incubated for another 24 h. Afterwards, cells were incubated with 0.5 mg mL^−1 MTT solution for at least 4 h at 37 °C and 5% CO2. Then culture media was removed and the formazan crystals attached to the bottom of the plate were dissolved with 200 µL of DMSO. Finally, UV-absorbance was measured at 595 nm in a microplate reader (Varioskan Flash Microplate reader, Thermo Scientific).

GSK-3β [3] = target: T1, GSK-3β; assay: Kinetic studies on GSK-3β (ADP-Glo Kinase Assay, varying ATP); assay type: biochemical; conditions: inhibitor at 0.5 and 1 μM, ATP 1 to 50 μM, GS-2 constant at 12.5 μM; Lineweaver–Burk
Procedure: To investigate the inhibitory mechanism of compounds 5 on GSK-3β, several kinetic experiments were performed using the ADP-Glo Kinase Assay. Kinetic experiments varying both ATP (from 1 to 50 μM) and the inhibitor (at 0.5 and 1 μM) concentrations were performed, while the concentration of GS-2 was kept constant at 12.5 μM.

[4] = PAMPA-BBB, reported permeability; cited from earlier work

SMILES	Papp at 4 h [2] [×10⁻⁶ cm/s]	BBB prediction [2]	IC50 (GSK-3β [1]) [µM]	melting point	further results
O=c1[nH]nnc2c1cnn2-c1ccccc1 [4a]	–	–	–	–	GSK-3 inhibition at a fixed compound concentration (GSK-3β [1]): inactive
O=c1[nH]nnc2c1cnn2-c1ccc(F)cc1 [4e]	–	–	–	–	GSK-3 inhibition at a fixed compound concentration (GSK-3β [1]): inactive
CCOC(=O)c1c2nn[nH]c(=O)c2nn1-c1ccc(C)cc1 [5b, ethyl 4-oxo-6-(p-tolyl)-4,6-dihydro-3H-pyrazolo[4,3-d][1,2,3]triazine-7-carboxylate]	2.3 ± 0.3	CNS+/−	0.9 ± 0.1	193 to 196 °C	cell viability (MTT test) in OA-induced neurodegeneration cell model (SH-SY5Y cells): able to increase the cell viability; type of inhibition on GSK-3 (GSK-3β [3]): ATP-competitive
CCOC(=O)c1c2nn[nH]c(=O)c2nn1-c1ccc(Br)cc1 [5f, ethyl 6-(4-bromophenyl)-4-oxo-4,6-dihydro-3H-pyrazolo[4,3-d][1,2,3]triazine-7-carboxylate]	3.2 ± 0.1	CNS+ (CNS + when they present a permeability >3.1 × 10^−6 cm s^−1)	1.4 ± 0.4	195 °C (dec.)	ability to cross the BBB by passive permeation [2]: would be able to cross the BBB by passive permeation; cell viability (MTT test) in OA-induced neurodegeneration cell model (SH-SY5Y cells): able to increase the cell viability
CCOC(=O)c1c2nn[nH]c(=O)c2nn1-c1ccc(I)cc1 [5g, ethyl 6-(4-iodophenyl)-4-oxo-4,6-dihydro-3H-pyrazolo[4,3-d][1,2,3]triazine-7-carboxylate]	5 ± 1	CNS+ (CNS + when they present a permeability >3.1 × 10^−6 cm s^−1)	0.8 ± 0.2	198 °C (dec.)	ability to cross the BBB by passive permeation [2]: would be able to cross the BBB by passive permeation; cell viability (MTT test) in OA-induced neurodegeneration cell model (SH-SY5Y cells): able to increase the cell viability
Cn1c(=O)c2c(ncn2C)n(C)c1=O [Caffeine, reference compound]	1.1 ± 0.4	–	–	–	–
CNCCCN1c2ccccc2CCc2ccccc21 [Desipramine, reference compound]	10.4 ± 0.1	–	–	–	–
CCn1cc(C(=O)O)c(=O)c2cc(F)c(N3CCNCC3)nc21 [Enoxacine, reference compound]	1.1 ± 0.6	–	–	–	–
C=C1[C@@H](O)[C@@H]2O[C@]3(CC[C@H](/C=C/[C@@H](C)[C@@H]4CC(C)=C[C@@]5(O[C@H](C[C@@](C)(O)C(=O)O)CC[C@H]5O)O4)O3)CC[C@H]2O[C@@H]1[C@@H](O)C[C@H](C)[C@H]1O[C@@]2(CCCCO2)CC[C@H]1C [OA, okadaic acid, reference compound]	–	–	–	–	decrease in cell viability (SH-SY5Y cells; OA at 30 nM, MTT): higher than 70%
CN1C(C(=O)Nc2ccccn2)=C(O)c2ccccc2S1(=O)=O [Piroxicam]	–	–	–	–	Pe bibli. [4]: 2.5 10^−6 cm s^−1
CN(C)CCCN1c2ccccc2Sc2ccccc21 [Promazine, reference compound]	8.4 ± 0.3	–	–	–	Pe bibli. [4]: 8.8 10^−6 cm s^−1
Cn1sc(=O)n(Cc2ccccc2)c1=O [TDZD-8, reference compound]	–	–	–	–	cell viability (MTT test) in OA-induced neurodegeneration cell model (SH-SY5Y cells): increase the cell viability

More lines, main results first:

Papp at 4 h [2] [×10⁻⁶ cm/s]	SMILES	BBB prediction [2]	IC50 (GSK-3β [1]) [µM]	melting point	further results
1.1 ± 0.6	CCOC(=O)c1c2nn[nH]c(=O)c2nn1-c1ccccc1 [5a, ethyl 4-oxo-6-phenyl-4,6-dihydro-3H-pyrazolo[4,3-d][1,2,3]triazine-7-carboxylate]	CNS−	4 ± 0.2	191.5 to 193 °C	–
1.6 ± 0.5	CCOC(=O)c1c2nn[nH]c(=O)c2nn1-c1ccc(OC)cc1 [5c, ethyl 6-(4-methoxyphenyl)-4-oxo-4,6-dihydro-3H-pyrazolo[4,3-d][1,2,3]triazine-7-carboxylate]	CNS+/−	1.7 ± 0.3	194 °C (dec.)	–
2.9 ± 0.7	CCOC(=O)c1c2nn[nH]c(=O)c2nn1-c1ccc(Cl)cc1 [5e, ethyl 6-(4-chlorophenyl)-4-oxo-4,6-dihydro-3H-pyrazolo[4,3-d][1,2,3]triazine-7-carboxylate]	CNS+/−	3.3 ± 0.3	198 °C (dec.)	ability to cross the BBB by passive permeation [2]: in the limit of a positive prediction
